The test system of test [1] is M. alconae. Description: MIC90 against bacteria associated with otic, ophthalmic and nasal infections. It counts as cell-based, Microbacterium alconae. The source says: (§1) The concentrations of the antibiotics of formula (I) in the compositions of the present invention will vary depending on the intended use of the compositions (e.g., treatment of existing infections or prevention of post-surgical infections), and the relative antimicrobial activity of the specific antibiotic selected. The antimicrobial activity of antibiotics is generally expressed as the minimum concentration required to inhibit the growth of a specified pathogen. This concentration is also referred to as the “minimum inhibitory concentration” or “MIC”. The term “MIC90” refers to the minimum concentration of antibiotic required to inhibit the growth of ninety percent (90%) of the strains of a species. The concentration of an antibiotic required to totally kill a specified bacteria is referred to as the “minimum bactericidal concentration” or “MBC”.

Test [2] deals with H. influenzae/β-lactamase positive. The test is described as above. It counts as cell-based.
From the text: as §1

Test [3] has as its system S. epidermidis/methicillin sensitive. The test is described as above. It is filed as cell-based.
From the text: as §1

The test system of test [4] is S. aureus/methicillin resistant. The test is described as above. It is filed as cell-based.
From the text: as §1

Test [5] has as its system S. pneumoniae/penicillin resistant. The test is described as above. It counts as cell-based.
From the text: as §1

The subject of test [6] is P. aeruginosa. The test is described as above. It is filed as cell-based.
From the text: as §1

In test [7] the test system is H influenzae/β-lactamase negative. The description is as above. It is filed as cell-based.
From the text: as §1

Test [8] has as its system S. aureus/methicillin sensitive. Described as above. It is filed as cell-based.
From the text: as §1

Test [9] concerns S. epidermidis/methicillin resistant. The test is described as above. It is filed as cell-based.
From the text: as §1

The test system of test [10] is S. pneumoniae/penicillin sensitive. The test is described as above. It is filed as cell-based.
From the text: as §1

In test [11] the test system is S. aureus/quinolone resistant. The description is as above. It counts as cell-based.
From the text: as §1

Test [12] deals with M. otitidis. The description is as above. It is filed as cell-based, Microbacterium otitidis.
From the text: as §1

The test system of test [13] is Microbacterium alconae. Description: In vitro MIC by agar and broth dilution methods (NCCLS M7-A4), clinical isolates. It is filed as cell-based. As to the method:
(§2) The activity levels were determined as MIC (minimum inhibitory concentration) values. In order to compare the activity of the compounds of the present invention to other antibiotics, MIC values for representatives quinolones, aminoglycosides, β-lactams and other types of antibiotics were also determined. […] The MCC numbers (e.g., “MCC 10647”) represent separate clinical isolates of the two Microbacterium species tested.
In general terms: Broth dilution looks for growth in wells or tubes with falling amounts of substance.

In test [14] the test system is Microbacterium otitidis. Described as above. It is filed as cell-based. As to the method: as §2
Setting [15] is: Haemophilus influenzae, read-out: MIC90.
Where [16] appears, read: Staphylococcus epidermidis, read-out: MIC90.
Setting [17] is: Staphylococcus aureus, read-out: MIC90.
The mark [18] stands for this setting: Streptococcus pneumoniae, read-out: MIC90.
The mark [19] stands for this setting: Pseudomonas aeruginosa, read-out: MIC90.
[20] abbreviates: Microbacterium alconae clinical isolate MCC 11639.
The mark [21] stands for this setting: Microbacterium alconae clinical isolate MCC 11653.
Setting [22] is: Microbacterium alconae clinical isolate MCC 11699.
Setting [23] is: Microbacterium otitidis clinical isolate MCC 10810.
Where [24] appears, read: Microbacterium otitidis clinical isolate MCC 10990.
[25] abbreviates: Microbacterium otitidis clinical isolate MCC 11676.
Setting [26] is: Microbacterium alconae clinical isolate MCC 11316.
[27] abbreviates: Microbacterium alconae clinical isolate MCC 11558.
[28] abbreviates: Microbacterium otitidis clinical isolate MCC 10647.
[29] abbreviates: Microbacterium otitidis clinical isolate MCC 11495.

In brackets after ≈: the same amount, converted by molar mass. Read-outs that look alike come from different tables or passages of the source.

For Moxifloxacin, the MIC90 was 0.25 micrograms per milliliter in [1]; 0.06 micrograms per milliliter in [2]; 0.25 micrograms per milliliter in test [3]; 4.0 micrograms per milliliter in test [4]; 0.25 micrograms per milliliter in test [5]; 8.0 micrograms per milliliter in test [6]. For the same compound, the MIC90 in [7] is recorded as 0.06 micrograms per milliliter; in test [8], 0.13 micrograms per milliliter; in [9], 4.0 micrograms per milliliter; in test [10], 0.25 micrograms per milliliter; in test [11] it was 4.0 micrograms per milliliter; in [12], 2.0 micrograms per milliliter.
Turning to `N[C@@H]1[C@H]2CN(c3nc4c(cc3F)c(=O)c(C(=O)O)cn4-c3ccc(F)cc3F)C[C@@H]12` [Trovafloxacin], the MIC90 in test [2] (setting [15]) is 0.03 µg/mL (≈ 0.0721 µM); in test [3] (setting [16]), 0.06 µg/mL (≈ 0.144 µM); in test [4] (setting [17]), 2 µg/mL (≈ 4.8 µM); in test [5] (setting [18]) it was 0.25 µg/mL (≈ 0.6 µM); in test [6] (setting [19]), 2 µg/mL (≈ 4.8 µM); in test [7] (setting [15]), 0.03 µg/mL (≈ 0.0721 µM). Further, the MIC90 in test [8] (setting [17]) was 0.03 µg/mL (≈ 0.0721 µM); in [9] (setting [16]) it was 4 µg/mL (≈ 9.61 µM); in test [10] (setting [18]), 0.25 µg/mL (≈ 0.6 µM); in test [11] (setting [17]), 4 µg/mL (≈ 9.61 µM).
Consider Polymyxin B, for which the “minimum inhibitory concentration (MIC)” value in test [13] (setting [20]) stood at 16 micrograms per milliliter; in test [13] (setting [21]) it was 16 micrograms per milliliter; in [13] (setting [22]), 16 micrograms per milliliter; in test [14] (setting [23]), 260 micrograms per milliliter; in [14] (setting [24]) it was 260 micrograms per milliliter; in test [14] (setting [25]), 16 micrograms per milliliter.
Consider Grepafloxacin, for which the MIC90 in test [2] was 0.008 micrograms per milliliter; in test [3] it was 0.13 micrograms per milliliter; in [4] it was 0.13 micrograms per milliliter; in [5], 0.25 micrograms per milliliter; in test [6] it was 8.0 micrograms per milliliter; in test [7], 0.008 micrograms per milliliter. Moreover, the MIC90 in test [8] worked out at 0.13 micrograms per milliliter; in test [9], 0.13 micrograms per milliliter; in [10] it was 0.25 micrograms per milliliter; in [11] it was 0.13 micrograms per milliliter.
As to Gentamicin, the “minimum inhibitory concentration (MIC)” value in test [13] (setting [26]) was 2.0 micrograms per milliliter; in [13] (setting [27]), 2.0 micrograms per milliliter; in [13] (setting [20]), 2.0 micrograms per milliliter; in test [13] (setting [21]), 2.0 micrograms per milliliter; in [13] (setting [22]), 2.0 micrograms per milliliter; in test [14] (setting [28]), 8.0 micrograms per milliliter. In addition, the “minimum inhibitory concentration (MIC)” value in test [14] (setting [23]) turned out to be 4.0 micrograms per milliliter; in test [14] (setting [24]), 4.0 micrograms per milliliter; in test [14] (setting [29]), 16 micrograms per milliliter; in test [14] (setting [25]), 4.0 micrograms per milliliter.
In the case of Neomycin, the “minimum inhibitory concentration (MIC)” value in test [13] (setting [26]) came to 1.0 micrograms per milliliter; in test [13] (setting [27]) it was 1.0 micrograms per milliliter; in test [13] (setting [20]), 1.0 micrograms per milliliter; in test [13] (setting [21]), 1.0 micrograms per milliliter; in test [13] (setting [22]) it was 1.0 micrograms per milliliter; in test [14] (setting [28]) it was 8.0 micrograms per milliliter. For the same compound, the “minimum inhibitory concentration (MIC)” value turned out to be 2.0 micrograms per milliliter in [14] (setting [23]), 2.0 micrograms per milliliter in test [14] (setting [24]), 8.0 micrograms per milliliter in test [14] (setting [29]) and 2.0 micrograms per milliliter in [14] (setting [25]).
As for `COc1c(N2CCNC(C)C2)c(F)cc2c(=O)c(C(=O)O)cn(C3CC3)c12` (centres unmarked) [Gatifloxacin], the MIC90 came to 0.06 µg/mL (≈ 0.16 µM) in test [2] (setting [15]); 0.5 µg/mL (≈ 1.33 µM) in [3] (setting [16]); 8 µg/mL (≈ 21.3 µM) in test [4] (setting [17]); 0.25 µg/mL (≈ 0.666 µM) in [5] (setting [18]); 2 µg/mL (≈ 5.33 µM) in test [6] (setting [19]); 0.06 µg/mL (≈ 0.16 µM) in [7] (setting [15]). The MIC90 is 0.25 µg/mL (≈ 0.666 µM) in test [8] (setting [17]), 4 µg/mL (≈ 10.7 µM) in test [9] (setting [16]), 0.25 µg/mL (≈ 0.666 µM) in test [10] (setting [18]) and 8 µg/mL (≈ 21.3 µM) in test [11] (setting [17]).

The values above are taken from patent publication US6740664B2, “Methods for treating otic and ophthalmic infections” (Alcon, Inc., priority 1998, dated 2004).
